Reference: patent US20250296971A1, “GASTRIC INHIBITORY PEPTIDE RECEPTOR LIGANDS” (priority 2021, published 2025)
*1 amine or outer side, *2 acyl side, *3 side chain or, on linkers, in order; H or OH if unused. Where a SMILES comes first, the peptide text is derived from it. Bridges are numbered along the chain shown (N, C = ends). [ ]: non-standard residue; d: D form. The star is where a group is joined. X5 = NC(=O)[C@H](CCCCNC(=O)CN1CCN(CC(=O)O)CCN(CC(=O)O)CCN(CC(=O)O)CC1)NC(=O)CCC(=O)NCCCOCCOCCOCCCN*; DOTA(Ga) = O=C1CN2CCN3CCN(CC(=O)*)CCN(CC2)CC(=O)[O][Ga]([O]1)[O]C(=O)C3; X3 = O=C(O)CN1CCN(CC(=O)O)CCN(CC(=O)NCCCOCCOCCOCCCN*)CCN(CC(=O)O)CC1; NH(1-deoxy-D-glucityl) = OC[C@@H](O)[C@@H](O)[C@H](O)[C@@H](O)CN*; DOTA = O=C(O)CN1CCN(CC(=O)O)CCN(CC(=O)*)CCN(CC(=O)O)CC1; Trp(5-Cl) = N[C@@H](Cc1c[nH]c2ccc(Cl)cc12)C(=O)O; Pyridine(2,6-diCH2) = c1cc(C[*:1])nc(C[*:2])c1; Pro(4S-NH2) = N[C@@H]1CN[C@H](C(=O)O)C1; Pro(4R-NH2) = N[C@H]1CN[C@H](C(=O)O)C1; mXylylene = c1cc(C[*:1])cc(C[*:2])c1; Glutaryl = O=C(CCCC(=O)[*:2])[*:1]; X6 = c1cc(CSCCN[*:2])nc(C[*:1])c1; X7 = c1cc(CSCCN[*:2])cc(C[*:1])c1; Hyp = O=C(O)[C@@H]1C[C@@H](O)CN1; X1 = O=C(CN1CCC(N[*:1])CC1)[*:2]; Suc = O=C(CCC(=O)[*:2])[*:1]; Api = NC1(C(=O)O)CCNCC1; Thp = NC1(C(=O)O)CCOCC1; Aib = CC(C)(N)C(=O)O

Assays:
[1] = molecular target: T1, GIPR (CHO-K1-hGIPR cells) (Homo sapiens, UniProt P48546); assay: FACS binding assay; settings: competition with 20 nM GIP-057, 4° C., 1 hour, read-out: pIC50 Category (converted)
T1 construct: host or cells: CHO-K1
T1 sequence (P48546 22-466): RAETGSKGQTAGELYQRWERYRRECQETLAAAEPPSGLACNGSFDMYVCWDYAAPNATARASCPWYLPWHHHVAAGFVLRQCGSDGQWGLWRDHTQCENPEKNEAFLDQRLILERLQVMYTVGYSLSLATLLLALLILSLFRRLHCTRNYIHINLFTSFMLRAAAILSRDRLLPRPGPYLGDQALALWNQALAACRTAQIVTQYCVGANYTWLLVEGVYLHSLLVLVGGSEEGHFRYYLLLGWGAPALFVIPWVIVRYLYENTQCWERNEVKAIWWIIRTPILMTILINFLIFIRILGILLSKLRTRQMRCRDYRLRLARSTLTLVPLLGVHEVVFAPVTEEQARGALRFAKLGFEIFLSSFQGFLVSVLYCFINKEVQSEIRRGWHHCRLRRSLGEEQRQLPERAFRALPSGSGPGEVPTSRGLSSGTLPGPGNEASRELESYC
Outline: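 Peptide binding read by flow cytometry as APC-channel median fluorescence, fitted with a four-parameter logistic to yield EC50 or IC50. Cells were hGIPR-transfected CHO-K1 in PBS with 1% FCS, detected with 1 μg/mL APC-streptavidin, 30 min on ice.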

[2] = molecular target: T2, human GIP receptor (bioGIPR) (Homo sapiens, UniProt P48546); assay: Surface plasmon resonance (SPR) based binding assay; settings: Single Cycle Kinetic mode, 25° C.; for t1/2 Category: SPR dissociation half-life; for Kd: SPR, 1:1 Langmuir binding model, read-out: pKD Category (converted)
T2 construct: Biotinylate extracellular of the human GIP receptor (bioGIPR, Proteros biostructures GmbH, lot #02/2b); purchased Proteros biostructures GmbH lot #02/2b
T2 sequence (P48546 22-138 limits assumed): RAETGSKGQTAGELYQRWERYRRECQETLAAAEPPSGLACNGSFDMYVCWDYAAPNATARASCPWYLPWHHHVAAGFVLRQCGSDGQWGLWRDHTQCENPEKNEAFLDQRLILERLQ
Procedure: Surface plasmon resonance (SPR) studies were performed using a Biacore™ T200 SPR system. Briefly, polarized light is directed towards a gold-labeled sensor surface, and minimum intensity reflected light is detected. The angle of reflected light changes as molecules bind and dissociate.
Biotinylate extracellular of the human GIP receptor (bioGIPR, Proteros biostructures GmbH, lot #02/2b) was captured on a biotin capture chip (Biotin CAPture Kit, Series S, GE Healthcare, Cat #28-9202-34). bioGIPR was diluted in Running Buffer (HBST from Xantec Analytics; […], 0.05% Tween20, 0.1% DMSO) to a final concentration 100 nM and than flushed over the Fc-capture chip to immobilized ˜3500 RUs.
Stock solutions of test compounds were prepared by dissolving each compound in DMSO. DMSO stock solution were diluted 1:1000 in Running Buffer without DMSO. Further sequential dilutions were made with Running Buffer containing 0.1% DMSO. SPR binding analyses were performed in Single Cycle Kinetic (SCK) mode at 25° C. Flow cell without immobilized bioGIPR served as reference flowcell. After each SCK run, bioGIRP and the Biotin Capture Reagent was removed with Regeneration Solution (6 M Guanidium, 0.75 M NaOH).
In between every three SCK measurements, a blank run with Running Buffer instead of test compound was included to correct for baseline drifts (double blanking method).
For each test compound, SPR raw data in the form of resonance units (RU) were plotted as sensorgrams using the Biacore™ T200 control software. The signal from the blank sensorgram was subtracted from that of the test compound sensorgram (blank corrected). The blank corrected sensorgram was corrected for baseline drift by subtracting the sensorgram of a SCK run without the test compound (running buffer only). The association rate (kon), dissociation rate (koff), dissociation constant (KD), and t1/2 were calculated from blank corrected SPR data using the 1:1 Langmuir binding model from the Biacore™ T200 evaluation software. Raw data and fit results were imported as text files in IDBS. The pKD value (negative decadic logarithm of dissociation constant) was calculated in the IDBS excel template.

| Compound | IC50 [1] | t1/2 Category [2] | Kd [2] |
| --- | --- | --- | --- |
| CC[C@H](C)[C@@H]1NC(=O)[C@H](CC(C)C)NC(=O)C2(CCN(C(=O)CN3CCN4CCN5CCN(CC3)CC(=O)[O][Ga]([O]C(=O)C5)[O]C(=O)C4)CC2)NC(=O)[C@@H](NC(=O)[C@@H](CC(C)C)NC(=O)[C@H](CCC(=O)O)NC(=O)[C@@H]2C[C@@H](N)CN2C(=O)[C@H](Cc2c[nH]c3ccc(Cl)cc23)NC(=O)[C@H](Cc2c[nH]c3ccccc23)NC(=O)[C@H](CC(=O)O)NC(=O)CCCC(=O)NC[C@H](O)[C@@H](O)[C@H](O)[C@H](O)CO)CSCc2cccc(n2)CSC[C@@H](C(=O)NC2CCN(CC(=O)N[C@H](CCC(=O)NC[C@H](O)[C@@H](O)[C@H](O)[C@H](O)CO)C(N)=O)CC2)NC1=O [GIP-069, Gallium-Complex of AGLU-Glutar-Asp-Trp-5Clw-Tap-Glu-leu-[Cys(2Lut)-Apc(DOTA)-Leu-Ile-Cys]-APAc-glu(AGLU)-NH2] ({NH(1-deoxy-D-glucityl)-Glutaryl}-DW[Trp(5-Cl)][Pro(4R-NH2)]E[dL]C[Api](DOTA(Ga))LIC[X1][dE](NH(1-deoxy-D-glucityl))-NH2; linker 7-11 via Pyridine(2,6-diCH2)) | < 10 nM | A (t1/2 values>15 min) | < 1 nM |
| CC[C@H](C)[C@@H]1NC(=O)[C@H](CC(C)C)NC(=O)C(C)(C)NC(=O)[C@@H](NC(=O)[C@@H](CC(C)C)NC(=O)[C@H](CCC(=O)O)NC(=O)[C@@H]2CCCN2C(=O)[C@H](Cc2c[nH]c3ccc(Cl)cc23)NC(=O)[C@H](Cc2c[nH]c3ccccc23)NC(=O)[C@H](CC(=O)O)NC(=O)CCC(=O)NCCCOCCOCCOCCCNC(=O)CN2CCN(CC(=O)O)CCN(CC(=O)O)CCN(CC(=O)O)CC2)CSCc2cccc(c2)CSCCNC1=O [GIP-077, DOTA-Ttds-Asp-Trp-5Clw-Pro-Glu-leu-[Cys(3MeBn)-Aib-Leu-Ile-AET]] ({X3-Suc}-DW[Trp(5-Cl)]PE[dL]C[Aib]LI; linker 7-C via X7) | < 10 nM |  | < 1 nM |
| CC[C@H](C)[C@@H]1NC(=O)[C@H](CC(C)C)NC(=O)C(C)(C)NC(=O)[C@@H](NC(=O)[C@@H](CC(C)C)NC(=O)[C@H](CCC(=O)O)NC(=O)[C@@H]2CCCN2C(=O)[C@H](Cc2c[nH]c3ccc(Cl)cc23)NC(=O)[C@H](Cc2c[nH]c3ccccc23)NC(=O)[C@H](CC(=O)O)NC(C)=O)CSCc2cccc(c2)CSC[C@@H](C(=O)NCCCOCCOCCOCCCNC(=O)CCC(=O)N[C@@H](CCCCNC(=O)CN2CCN(CC(=O)O)CCN(CC(=O)O)CCN(CC(=O)O)CC2)C(N)=O)NC1=O [GIP-079, Ac-Asp-Trp-5Clw-Pro-Glu-leu-[Cys(3MeBn)-Aib-Leu-Ile-Cys]-Ttds-Lys(DOTA)-NH2] (Ac-DW[Trp(5-Cl)]PE[dL]C[Aib]LIC-X5; linker 7-11 via mXylylene) | < 10 nM | A (t1/2 values>15 min) | < 1 nM |
| CC[C@H](C)[C@@H]1NC(=O)[C@H](CC(C)C)NC(=O)C(C)(C)NC(=O)[C@@H](NC(=O)[C@@H](CC(C)C)NC(=O)[C@H](CCC(=O)O)NC(=O)[C@@H]2C[C@@H](N)CN2C(=O)[C@H](Cc2c[nH]c3ccc(Cl)cc23)NC(=O)[C@H](Cc2c[nH]c3ccccc23)NC(=O)[C@H](CC(=O)O)NC(=O)CCC(=O)NCCCOCCOCCOCCCNC(=O)CN2CCN(CC(=O)O)CCN(CC(=O)O)CCN(CC(=O)O)CC2)CSCc2cccc(c2)CSCCNC1=O [GIP-095, DOTA-Ttds-Asp-Trp-5Clw-Tap-Glu-leu-[Cys(3MeBn)-Aib-Leu-Ile-AET]] ({X3-Suc}-DW[Trp(5-Cl)][Pro(4R-NH2)]E[dL]C[Aib]LI; linker 7-C via X7) | < 10 nM | A (t1/2 values>15 min) | < 1 nM |
| CC[C@H](C)[C@@H]1NC(=O)[C@H](CC(C)C)NC(=O)C(C)(C)NC(=O)[C@@H](NC(=O)[C@@H](CC(C)C)NC(=O)[C@H](CCC(=O)O)NC(=O)[C@@H]2C[C@H](N)CN2C(=O)[C@H](Cc2c[nH]c3ccc(Cl)cc23)NC(=O)[C@H](Cc2c[nH]c3ccccc23)NC(=O)[C@H](CC(=O)O)NC(=O)CCC(=O)NCCCOCCOCCOCCCNC(=O)CN2CCN(CC(=O)O)CCN(CC(=O)O)CCN(CC(=O)O)CC2)CSCc2cccc(c2)CSCCNC1=O [GIP-096, DOTA-Ttds-Asp-Trp-5Clw-4Ap-Glu-leu-[Cys(3MeBn)-Aib-Leu-Ile-AET]] ({X3-Suc}-DW[Trp(5-Cl)][Pro(4S-NH2)]E[dL]C[Aib]LI; linker 7-C via X7) | < 10 nM | A (t1/2 values>15 min) | < 1 nM |
| CC[C@H](C)[C@@H]1NC(=O)[C@H](CC(C)C)NC(=O)C2(CCN(C(C)=O)CC2)NC(=O)[C@@H](NC(=O)[C@@H](CC(C)C)NC(=O)[C@H](CCC(=O)O)NC(=O)[C@@H]2CCCN2C(=O)[C@H](Cc2c[nH]c3ccc(Cl)cc23)NC(=O)[C@H](Cc2c[nH]c3ccccc23)NC(=O)[C@H](CC(=O)O)NC(=O)CCC(=O)NCCCOCCOCCOCCCNC(=O)CN2CCN(CC(=O)O)CCN(CC(=O)O)CCN(CC(=O)O)CC2)CSCc2cccc(c2)CSCCNC1=O [GIP-097, DOTA-Ttds-Asp-Trp-5Clw-Pro-Glu-leu-[Cys(3MeBn)-Apc(Ac)-Leu-Ile-AET]] ({X3-Suc}-DW[Trp(5-Cl)]PE[dL]C[Api](Ac)LI; linker 7-C via X7) | < 10 nM | A (t1/2 values>15 min) | < 1 nM |
| CC[C@H](C)[C@@H]1NC(=O)[C@H](CC(C)C)NC(=O)C2(CCOCC2)NC(=O)[C@@H](NC(=O)[C@@H](CC(C)C)NC(=O)[C@H](CCC(=O)O)NC(=O)[C@@H]2C[C@@H](O)CN2C(=O)[C@H](Cc2c[nH]c3ccc(Cl)cc23)NC(=O)[C@H](Cc2c[nH]c3ccccc23)NC(=O)[C@H](CC(=O)O)NC(=O)CN2CCC(NC(=O)CN3CCN(CC(=O)O)CCN(CC(=O)O)CCN(CC(=O)O)CC3)CC2)CSCc2cccc(n2)CSCCNC1=O [GIP-103, DOTA-APAc-Asp-Trp-5Clw-Hyp-Glu-leu-[Cys(2Lut)-Thp-Leu-Ile-AET]] ({DOTA}-[X1]DW[Trp(5-Cl)][Hyp]E[dL]C[Thp]LI; linker 8-C via X6) | < 10 nM | A (t1/2 values>15 min) | < 1 nM |
| CC[C@H](C)[C@@H]1NC(=O)[C@H](CC(C)C)NC(=O)C2(CCOCC2)NC(=O)[C@@H](NC(=O)[C@@H](CC(C)C)NC(=O)[C@H](CCC(=O)O)NC(=O)[C@@H]2C[C@@H](O)CN2C(=O)[C@H](Cc2c[nH]c3ccc(Cl)cc23)NC(=O)[C@H](Cc2c[nH]c3ccccc23)NC(=O)[C@H](CC(=O)O)NC(=O)CN2CCC(NC(=O)CN3CCN(CC(=O)O)CCN(CC(=O)O)CCN(CC(=O)O)CC3)CC2)CNCc2cccc(n2)CSCCNC1=O [GIP-106, DOTA-APAc-Asp-Trp-5Clw-Hyp-Glu-leu-[Dap(2Lut)-Thp-Leu-Ile-AET]] | < 10 nM | A (t1/2 values>15 min) | 1 to 7.94 nM |
| CC[C@H](C)[C@@H]1NC(=O)[C@H](CC(C)C)NC(=O)C2(CCOCC2)NC(=O)[C@@H](NC(=O)[C@@H](CC(C)C)NC(=O)[C@H](CCC(=O)O)NC(=O)[C@@H]2C[C@@H](O)CN2C(=O)[C@H](Cc2c[nH]c3ccc(Cl)cc23)NC(=O)[C@H](Cc2c[nH]c3ccccc23)NC(=O)[C@H](CC(=O)O)NC(=O)CN2CCC(NC(=O)CN3CCN(CC(=O)O)CCN(CC(=O)O)CCN(CC(=O)O)CC3)CC2)CNCc2cccc(c2)CSCCNC1=O [GIP-107, DOTA-APAc-Asp-Trp-5Clw-Hyp-Glu-leu-[Dap(3MeBn)-Thp-Leu-Ile-AET]] | < 10 nM | A (t1/2 values>15 min) | < 1 nM |
